In US9206173B2, “Heterocyclic compounds for the treatment of stress-related conditions” (OTSUKA PHARMACEUTICAL CO., LTD., priority 2009, dated 2015):
Structures can show the parent of a compound that is named as a salt.

target: human GPR10 (Homo sapiens (Human), UniProt P49683); assay: Inhibitory activity on binding of [3H]-PrRP to GPR10 (HEK 293 cell membrane fraction); conditions: [3H]-PrRP 1 nM, human GPR10-expressing HEK 293 cell membrane fraction; Ki from IC50 by Cheng-Prussoff formula
Procedure: Inhibitory Activity on Binding of [^3H]-PrRP to GPR10
Human GPR10 receptor expressing human embryonic kidney cells, HEK 293 cells, were cultured in Dulbecco's Modified Eagle's medium supplemented with 10% fetal bovine serum and 1% penicilline-streptmycin at 37° C., in 5% carbon dioxide gas conditions. The medium was removed and the cells were recovered in a phosphate buffer to prepare a cell suspension. The cell suspension was homogenated on ice by an ultrasonic cell homogenizer (Microson™ type XL200) and centrifuged at 40,000 g for 10 minutes at 4° C. After the supernatant was discarded, Buffer A (20 mM HEPES, 10 mM EDTA, 1 μl/ml protease inhibiting cocktail, pH 7.4) was added to the pellet. The pellet was suspended by the ultrasonic cell homogenizer, then the suspension was centrifuged at 40,000 g, for 10 minutes at 4° C. After this operation was repeated once again, the supernatant was discarded, Buffer B (20 mM HEPES, 0.1 mM EDTA, pH 7.4) was added to the pellet, and the pellet was suspended by the ultrasonic homogenizer. This was stored at a freezer of −80° C. as a cell membrane fraction until use in a binding test.
To each well of a 96-well plate, 150 μl of assay buffer (20 mM HEPES, 10 mM EDTA, 1 μl/ml protease inhibiting agent cocktail, pH 7.4), 20 μl of cell membrane fraction, 10 μl of test compound and [^3H]-PrRP (final concentration 1 nM) were added and incubated at room temperature for 90 minutes. After completion of the reaction, using a cell harvester, the cell-membrane fraction sample product was filtered under aspiration by a glass fiber filter plate (Unifilter; GF/B) previously treated with 0.5% polyethylene imine. The filter was washed with a 50 mM Tris hydrochloric acid buffer (pH 7.4) three times. After the filter was dried in a dryer (50° C.) for about 3 hours, 40 μl of liquid scintillation cocktail (MicroScint-O) was added to each well and radio activity was measured by a scintillation counter (Packard Topcount). The radio activity in the presence of an excessive amount of non-labeled PrRP (final concentration: 100 nM) was regarded as non-specific binding.
The binding inhibition rate was calculated based on calculating formula: 100−(radio activity when a compound is added−radio activity of non-specific binding)÷(radio activity when a solvent is added−radio activity of non-specific binding)×100.
An IC50 value was calculated based on the concentration dependent reaction using a non-linear analysis program and a Ki value was calculated using Cheng-Prussoff formula.

Sequence of human GPR10 (P49683 whole entry): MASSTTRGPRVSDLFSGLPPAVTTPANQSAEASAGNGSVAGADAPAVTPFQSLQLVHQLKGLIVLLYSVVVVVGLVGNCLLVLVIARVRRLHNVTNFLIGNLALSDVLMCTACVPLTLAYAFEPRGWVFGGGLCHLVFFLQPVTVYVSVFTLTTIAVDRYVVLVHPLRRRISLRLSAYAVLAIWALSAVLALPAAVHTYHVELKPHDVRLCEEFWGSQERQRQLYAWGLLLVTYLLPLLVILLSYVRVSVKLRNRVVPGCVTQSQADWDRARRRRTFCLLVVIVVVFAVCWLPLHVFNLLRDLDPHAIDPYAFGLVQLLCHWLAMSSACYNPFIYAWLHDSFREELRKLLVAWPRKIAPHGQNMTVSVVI

Structure (SMILES) | Ki [µM]
COn1c(N[C@@H](C)c2ccc(C(F)(F)F)cc2)nc2c(c1=O)CN(C(=O)COc1ccc(C#N)cc1)CC2 [Example 2468, 4-(2-{3-methoxy-4-oxo-2-[(S)-1-(4-trifluoromethylphenyl)ethylamino]-3,5,7,8-tetrahydro-4H-pyrido[4,3-d]pyrimidin-6-yl}-2-oxo-ethoxy)benzonitrile] | 0.006
CC#CCn1c(N[C@@H](C)c2ccc(C(F)(F)F)cc2)nc2c(c1=O)CN(C(=O)c1ccc(C)c(C)c1)CC2 [Example 2447, 3-(2-butynyl)-6-(3,4-dimethylbenzoyl)-2-[(S)-1-(4-trifluoromethylphenyl)ethylamino]-5,6,7,8-tetrahydro-3H-pyrido[4,3-d]pyrimidin-4-one] | 0.041
C#CCCn1c(N[C@@H](C)c2ccc(C(F)(F)F)cc2)nc2c(c1=O)CN(C(=O)c1ccc(-c3cnco3)cc1)CC2 [Example 2438, 3-(3-butynyl)-6-(4-oxazol-5-ylbenzoyl)-2-[(S)-1-(4-trifluoromethylphenyl)ethylamino]-5,6,7,8-tetrahydro-3H-pyrido[4,3-d]pyrimidin-4-one] | 0.026
C#CCCn1c(N[C@@H](C)c2ccc(C(F)(F)F)cc2)nc2c(c1=O)CN(C(=O)c1ccc(C)cc1)CC2 [Example 2443, 3-(3-butynyl)-6-(4-methylbenzoyl)-2-[(S)-1-(4-trifluoromethylphenyl)ethylamino]-5,6,7,8-tetrahydro-3H-pyrido[4,3-d]pyrimidin-4-one] | 0.041
C#CCn1c(N[C@@H](C)c2ccc(C(F)(F)F)cc2)nc2c(c1=O)CN(C(=O)c1c(F)cccc1F)CC2 [Example 2478, 6-(2,6-difluorobenzoyl)-3-(2-propynyl)-2-[(S)-1-(4-trifluoromethylphenyl)ethylamino]-5,6,7,8-tetrahydro-3H-pyrido[4,3-d]pyrimidin-4-one] | 0.009
COn1c(NCc2ccc(C(F)(F)F)cc2)nc2c(c1=O)CN(C(=O)c1ccc(Cl)cc1)CC2 [Example 2477, 6-(4-chlorobenzoyl)-3-methoxy-2-(4-trifluoromethylbenzylamino)-5,6,7,8-tetrahydro-3H-pyrido[4,3-d]pyrimidin-4-one hydrochloride] | 0.039
COc1ccc2oc(C(=O)N3CCc4nc(N[C@@H](C)c5ccc(C(F)(F)F)cc5)n(OC)c(=O)c4C3)cc2c1 [Example 2460, 3-methoxy-6-(5-methoxybenzofuran-2-carbonyl)-2-[(S)-1-(4-trifluoromethylphenyl)ethylamino]-5,6,7,8-tetrahydro-3H-pyrido[4,3-d]pyrimidin-4-one] | 0.014
CC#CCn1c(N[C@@H](C)c2ccc(C(F)(F)F)cc2)nc2c(c1=O)CN(C(=O)c1ccc3c(c1)OCO3)CC2 [Example 2444, 6-(benzo[1,3]dioxole-5-carbonyl)-3-(2-butynyl)-2-[(S)-1-(4-trifluoromethylphenyl)ethylamino]-5,6,7,8-tetrahydro-3H-pyrido[4,3-d]pyrimidin-4-one] | 0.042
CC(C)COn1c(N[C@@H](C)c2ccc(C(F)(F)F)cc2)nc2c(c1=O)CN(C(=O)c1ccc(C#N)cc1F)CC2 [Example 2416, 3-fluoro-4-{3-isobutoxy-4-oxo-2-[(S)-1-(4-trifluoromethylphenyl)ethylamino]-3,5,7,8-tetrahydro-4H-pyrido[4,3-d]pyrimidine-6-carbonyl}benzonitrile] | 0.033
COn1c(N[C@H](c2ccc(Cl)cc2)C(C)C)nc2c(c1=O)CN(C(=O)c1ccc3c(c1)OCCO3)CC2 [Example 2479, 2-[(S)-1-(4-chlorophenyl)-2-methylpropylamino]-6-(2,3-dihydrobenzo[1,4]dioxine-6-carbonyl)-3-methoxy-5,6,7,8-tetrahydro-3H-pyrido[4,3-d]pyrimidin-4-one] | 0.042
C#CCCn1c(N[C@@H](C)c2ccc(C(F)(F)F)cc2)nc2c(c1=O)CN(C(=O)c1nc3ccccc3[nH]1)CC2 [Example 2458, 6-(1H-benzoimidazole-2-carbonyl)-3-(3-butynyl)-2-[(S)-1-(4-trifluoromethylphenyl)ethylamino]-5,6,7,8-tetrahydro-3H-pyrido[4,3-d]pyrimidin-4-one] | 0.245
